Source: patent US5912232A, “Anti-inflammatory polypeptide antagonists of human I1-8” (Board of Regents of the University of Nebraska, priority 1996, dated 1999)
Where no end group is shown, it is not given here.

How the values were obtained:
IL-8 = assay: activity of IL-8 analog compared to analog 1 (test not specified); design: species or system human; conditions: C-terminally truncated (residues 6 to 16)
Description: The biological activity of an analog of the invention is determined by blocking with the analog an activity with naturally occurring IL-8.

neutrophils (PMNs) = assay: IL-8 induced Ca release in Fluo-3 loaded neutrophils, flow cytometry; type: cell-based, human; conditions: PMNs pre-incubated with analog at 10^-6 M; IL-8 10^-6 M; FIG. 6
Description: Polymorphonuclear leukocytes (≥95% neutrophils, PMNs) were isolated from heparinized (10 μ/ml) blood collected from healthy volunteers. Erythrocytes were removed by 6% dextran sedimentation for 30 minutes at room temperature, and then the supernatant was subjected to Ficoll (Ficoll-Papque, Pharmacia LKB, Uppsala, Sweden) density gradient centrifugation. PMNs were obtained from the pellet. Contaminated erythrocytes were eliminated by one cycle of hypotonic lysis. After an additional washing step the cells were counted and adjusted to a final concentration of 5×10^6 /ml in RPMI 1640 (Gibco, Grand Island, N.Y.).
The loading procedure with Fluo-3 (Molecular Probes, Eugene, Oreg.) was carried out with PMNs suspended at a density of 5×10^6 /ml in fresh RPMI 1640 containing 2.0 μM Fluo-3 AM (prediluted in dimethyl sulfoxide; Sigma Chemicals) in polypropylene tubes (Falcon 2063, Becton Dickinson). We incubated the PMNs for 25 minutes at 37 degrees C in a 5% CO2 incubator. […]
Before addition of the stimuli the fluorescence channel of the FACScan Plus (Becton Dickinson) was adjusted to find the basal fluorescence level of loaded but unstimulated PMNs. The samples were excited by an argon laser at 488 nm and emission was measured at 525 nm (green fluorescence, channel FL1). […] The fluorescence of Fluo-3-loaded cells was measured in arbitrary fluorescence units of mean channel fluorescence (channel FL1). […]

[1] = tested on: arachidonic acid induced ear inflammation; assay: arachidonic acid induced ear inflammation in mice (ear thickness/edema); type: in vivo, C57BL/6 female mice; conditions: ip 1 hour prior to arachidonic acid; ear thickness 1 hour post challenge; FIGS. 1 and 2
Description: A stock solution of 5 mgml of example 1 was prepared in D-PBS. The Analog 1 consists of 88.1% active peptide and the calculations were adjusted to compensate for the activity of the Analog 1. Serial dilutions were then made resulting in solutions of appropriate doses of Analog 1 in 0.2 ml. The animals were injected ip with 0.2 ml of the appropriate solution 1 hour prior to arachidonic acid application. The study consisted of various dosage groups as well as excipient groups. The animals used for the study were C57BL/6 female mice, which were obtained from Jackson Laboratories (age 8 weeks and weight 15-18 g). The mice were housed in conventional cages, fed pelleted food and given water ad libitum. The arachidonic acid (Sigma Lot #42H7817) was dissolved in methyl alcohol resulting in a final concentration of 2 mg/20 μl. […] One hour post challenge, the test and control ears were measured for thickness using a Mitutoyo No. 7300 gauge caliper. The thickness was recorded in units of 0.001 inches. […] The effect of Analog 1, which is on IL-8 low molecular weight peptide analog residue 6-19 on arachidonic acid induced ear inflammation was evaluated in vivo, according to the methods described in Example II. In this model, the application of arachidonic acid to the pinna of mice induces an immediate PMN-associated erythema and edema which may be measured by change in thickness. […]

Row | Sequence | activity compared to analog 1 (IL-8) | block of Ca signal transduction induced by IL-8 (neutrophils (PMNs)) | EC-50 for blocking edema [1] [μg/animal]
1 | RCQCLQTLQGIHPK (cysteine pairing not given here) [Analog 2, Derived from Alpha Chemokine GRO (MGSA); b140 describes it as IL-8 residues 6 to 16] | slight loss of activity | – | –
2 | RCQCIKTYSKPFHPK (cysteine pairing not given here) [Analog 1] | – | blocked the Ca signal transduction | ~1
